Experimental data taken from the NIST ThermoML archive (doi:10.1016/j.jct.2013.12.028).

What was measured:
[1] = 101.33 kPa, Liquid, Vibrating tube method
[2] = refractive index (Na D-line) (dimensionless); details: 298.15 K; 101.33 kPa; Liquid; Pulfrich refractometry

C1CCOC1 [tetrahydrofuran]
[1]
Details | mass density [kg/m3]
278.15 K | 903.68
283.15 K | 898.309
288.15 K | 892.903
293.15 K | 887.471
298.15 K | 882.005
303.15 K | 876.513
308.15 K | 870.981
313.15 K | 865.414
318.15 K | 859.81

Details | refractive index
[2] | 1.4048
